From US20210255193A1, “LYSINE REACTIVE PROBES AND USES THEREOF” (The Scripps Research Institute, priority 2017, published 2021)

How the values were obtained:
Type in all cases: binding
[1] = tested on: lysine residues in human cell proteomes (MDA-MB-231, Ramos, Jurkat); test: isoTOP-ABPP lysine reactivity profiling (0.1 vs 1 mM probe 1)
Procedure: (§1) STP-alkyne labeling and click chemistry. For concentration-dependent reactivity measurements by isoTOP-ABPP, 0.5 ml proteome aliquots were treated at ambient temperature with 1 mM STP-alkyne 1 (5 μl of 100 mM stock in DMSO) and 0.1 mM STP alkyne 1 (5 μl of 10 mM stock in DMSO), respectively. For competitive isoTOP-ABPP, after in vitro fragment treatment (detailed above), the samples were labeled for 1 h at ambient temperature with 0.1 mM STP-alkyne 1 (5 μl of 10 mM stock in DMSO). Samples were conjugated by copper-mediated azide-alkyne cycloaddition (CuAAC) to either the light (1 mM STP-alkyne or fragment treated) or heavy (0.1 mM STP-alkyne or DMSO treated) TEV tags (10 μl of 5 mM stocks in DMSO, final concentration=100 μM) using tris(2-carboxyethyl)phosphine hydrochloride
(§2) R value calculation and processing. The ratios of light and heavy MS1 peaks for each unique peptide were quantified with a CIMAGE software using default parameters (3 MS1 acquisitions per peak and signal to noise threshold set to 2.5). For reactivity measurements by isoTOP-ABPP, the R value was calculated from the ratio of MS1 peak areas, comparing the 1 mM STP alkyne sample (light TEV tag) with the 0.1 mM STP alkyne sample (heavy TEV tag). For competitive isoTOP-ABPP, the R value was calculated from the ratio of MS1 peak areas, comparing the DMSO treated sample (heavy TEV tag) with the compound treated sample (light TEV tag). […] Ratios for unique peptide entries are calculated for each experiment; overlapping peptides with the same modified lysine (for example, different charge states, MudPIT chromatographic steps or tryptic termini) are grouped together and the median ratio is reported as the final ratio (R). The peptide ratios reported by CIMAGE were further filtered to ensure the removal or correction of low-quality ratios in each individual data set. […]
(§3) Cross-data processing for reactivity profiling. For reactivity profiling, the median of biological replicates of the same condition and cell-line was calculated. For peptides containing several possible modified lysines, the lysine with the highest number of quantification events was used for analysis and the remaining, redundant peptides were reported as alternative modification sites. Peptides were required to be detected in at least one 1 mM vs 0.1 mM and one 0.1 mM vs 0.1 mM data set with the latter R value being smaller than 2.5. […] If the lysine was not detected in any soluble fraction, the R value from the membrane fraction was taken. Additionally, all membrane-only lysines with reactivity values were further required to have been detected in at least one 0.1 mM vs 0.1 mM membrane profiling experiment. […]
(§4) Here, the intrinsic reactivity of lysine residues was assessed in human cell proteomes. In brief, proteomes from three human cancer cell lines were treated (MDA-MB-231, Ramos, and Jurkat cells) with low vs high concentrations of probe 1 (0.1 vs 1 mM, n=4 per group) for 1 h and then analyzed the samples by isoTOP-ABPP, wherein high, medium, and low reactivity lysines were distinguished by their respective isotopic ratio values (R10:1<2, 2<R10:1<5, R10:1>5, respectively). […]

[2] = target: T1, lysine residues in human cell proteomes (MDA-MB-231, Ramos, Jurkat) (Homo sapiens, UniProt Q9NVS9); test: as above; conditions: PNPO K100; 1 mM vs 0.1 mM probe 1
T1 construct: endogenous in cells; host or cells: MDA-MB-231, Ramos, Jurkat lysates
Procedure: as §1, §2, §3, §4

[3] = tested on: soluble proteome of the human breast cancer cell line MDA-MB-231; test: isoTOP-ABPP, residues labeled by probe 1
Procedure: as §1
Peptide and protein identification. The MS2 spectra were extracted from the raw file using RAW Xtractor. MS2 spectra were searched using the ProLuCID algorithm using a reverse concatenated, nonredundant variant of the Human UniProt database (release-2012_11). Cysteine residues were searched with a static modification for carboxyamidomethylation (+57.02146). For all competitive and reactivity profiling experiments, lysine residues were searched with up to one differential modification for either the light or heavy TEV tags (+464.2491 or +470.26331, respectively). Peptides were required to have at least one tryptic terminus and to contain the TEV modification. ProLuCID data was filtered through DTASelect (version 2.0) to achieve a peptide false-positive rate below 1%.
Differential labeling analysis of residues labeled by probe 1. For analysis of the residues labeled by probe 1, peptide and protein identification was conducted as detailed above with differential modification for either the light or heavy TEV tags (+464.2491 or +470.26331, respectively) allowed on lysine, arginine, aspartate, glutamate, histidine, serine, threonine, tyrosine, asparagine, glutamine and tryptophan. Cysteine was searched with a differential modification for either the light or heavy TEV tags (+413.24185 and +407.22764, respectively).
To assess the scope and selectivity with which 1 reacted with lysine residues in human cell proteomes, initial isoTOP-ABPP experiments were performed as follows. Two equal amounts of the soluble proteome of the human breast cancer cell line MDA-MB-231 (0.75 mg of protein per sample) were treated with 1 (100 μM, 1 h), and then conjugated by copper-catalyzed azide-alkyne cycloaddition (CuAAC) to isotopically differentiated TEV-cleavable, azide-biotin tags (heavy and light, respectively). The heavy and light-tagged samples were then combined, and 1-labeled proteins enriched by streptavidin and proteolytically digested sequentially with trypsin and TEV protease (to release 1-labeled tryptic peptides from the streptavidin support), furnishing isotopic (heavy/light) peptide pairs that were analyzed by multidimensional liquid chromatography-MS(LC/LC-MS/MS). Measurement of the MS1 chromatographic peak ratios for light/heavy peptide pairs provided an isoTOP-ABPP ratio or R value, which centered on about 1.0 for the more than 5000 probe 1-labeled peptides quantified in this initial study. […] Because lysine modification creates a missed trypsin cleavage site, the fractions of alternative amino-acid modification assignments were further assessed for their occurrence on peptides harboring a missed lysine cleavage site. […]

[4] = 1 100 μM, 1 h, pilot experiment

T1 sequence (Q9NVS9 whole entry): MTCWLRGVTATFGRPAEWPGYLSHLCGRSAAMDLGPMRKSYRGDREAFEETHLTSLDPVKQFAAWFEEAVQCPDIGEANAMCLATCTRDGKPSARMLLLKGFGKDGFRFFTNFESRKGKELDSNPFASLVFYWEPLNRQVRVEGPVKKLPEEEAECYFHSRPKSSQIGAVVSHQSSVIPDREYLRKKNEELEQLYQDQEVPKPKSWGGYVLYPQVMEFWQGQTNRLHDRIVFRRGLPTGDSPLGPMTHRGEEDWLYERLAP

C#CCCC(=O)Oc1c(F)c(F)c(S(=O)(=O)[O-])c(F)c1F.[Na+] [probe 1, reference compound]
selectivity for lysine modification over other amino acids ([1]; 1 mM probe): excellent selectivity for lysine modification over other amino acids | hyper-reactive lysines (R10:1 <2), total residues ([1]; 0.1 vs 1 mM probe 1, 1 h): 310 | quantified lysines with R10:1 values = 10 (low intrinsic reactivity) ([1]; 0.1 vs 1 mM probe 1, 1 h): > 50% | quantified lysines with hyper-reactivity with probe 1 (R10:1 values <2) ([1]; 0.1 vs 1 mM probe 1, 1 h): < 10% | R10:1 lysine reactivity ratio [2]: 0.7 | reactivity and selectivity for lysine residues in the human proteome ([3]; 1 100 μM): broad reactivity and good selectivity for lysine residues | probe 1-labeled peptides quantified ([3]; 1 100 μM, 1 h): more than 5000 | 1-labeled peptides assigned as uniquely modified on lysine residues [3, 4]: > 52% | remaining 1-labeled peptides assigned with lysine modifications as well as alternative residue modifications [3, 4]: 54% | probe 1 modifications assigned to serine, of the total 1-labeled peptides ([3]; after filtering missed lysine cleavage events): about 8%
